From patent US10214519B2, “Phosphatidylinositol 3-kinase inhibitors” (Gilead Sciences, Inc., priority 2016, dated 2019)

target: PI3Kβ (Homo sapiens (Human), UniProt P42338); experiment: PI3K isoform TR-FRET enzymatic assay (PI3Kβ); format: biochemical; conditions: 2× Km ATP, 30 minutes at 25° C.
Description: The compounds of formula (I) were characterized for their enzymatic activity against the PI3K isoforms. The activities were measured using a time-resolved fluorescence resonance energy transfer (TR-FRET) assay. TR-FRET monitored the formation of 3,4,5-inositol triphosphate molecule that competed with fluorescently labeled PIP3 for binding to the GRP-1 pleckstrin homology domain protein.
Class I PI3K isoforms were expressed and purified as heterodimeric recombinant proteins. All assay reagents and buffers for the TR-FRET assay were purchased from Millipore. […] The compounds were added to the assay solution and incubated for 30 minutes at 25° C. The reactions were terminated with a final concentration of 10 mM EDTA, 10 nM labeled-PIP3, and 35 nM Europium labeled GRP-1 detector protein before reading TR-FRET on an Envision plate reader (Ex: 340 nm; Em: 615/665 nm; 100 μs delay and 500 μs read window).
The results were normalized based on positive (1 μM wortmanin) and negative (DMSO) controls, and the IC50 values for PI3K α, β, δ, and γ were calculated from the fit of the dose-response curves to a four-parameter equation.

Chain of PI3Kβ (P42338 whole entry, the tested form may be a part, canonical isoform): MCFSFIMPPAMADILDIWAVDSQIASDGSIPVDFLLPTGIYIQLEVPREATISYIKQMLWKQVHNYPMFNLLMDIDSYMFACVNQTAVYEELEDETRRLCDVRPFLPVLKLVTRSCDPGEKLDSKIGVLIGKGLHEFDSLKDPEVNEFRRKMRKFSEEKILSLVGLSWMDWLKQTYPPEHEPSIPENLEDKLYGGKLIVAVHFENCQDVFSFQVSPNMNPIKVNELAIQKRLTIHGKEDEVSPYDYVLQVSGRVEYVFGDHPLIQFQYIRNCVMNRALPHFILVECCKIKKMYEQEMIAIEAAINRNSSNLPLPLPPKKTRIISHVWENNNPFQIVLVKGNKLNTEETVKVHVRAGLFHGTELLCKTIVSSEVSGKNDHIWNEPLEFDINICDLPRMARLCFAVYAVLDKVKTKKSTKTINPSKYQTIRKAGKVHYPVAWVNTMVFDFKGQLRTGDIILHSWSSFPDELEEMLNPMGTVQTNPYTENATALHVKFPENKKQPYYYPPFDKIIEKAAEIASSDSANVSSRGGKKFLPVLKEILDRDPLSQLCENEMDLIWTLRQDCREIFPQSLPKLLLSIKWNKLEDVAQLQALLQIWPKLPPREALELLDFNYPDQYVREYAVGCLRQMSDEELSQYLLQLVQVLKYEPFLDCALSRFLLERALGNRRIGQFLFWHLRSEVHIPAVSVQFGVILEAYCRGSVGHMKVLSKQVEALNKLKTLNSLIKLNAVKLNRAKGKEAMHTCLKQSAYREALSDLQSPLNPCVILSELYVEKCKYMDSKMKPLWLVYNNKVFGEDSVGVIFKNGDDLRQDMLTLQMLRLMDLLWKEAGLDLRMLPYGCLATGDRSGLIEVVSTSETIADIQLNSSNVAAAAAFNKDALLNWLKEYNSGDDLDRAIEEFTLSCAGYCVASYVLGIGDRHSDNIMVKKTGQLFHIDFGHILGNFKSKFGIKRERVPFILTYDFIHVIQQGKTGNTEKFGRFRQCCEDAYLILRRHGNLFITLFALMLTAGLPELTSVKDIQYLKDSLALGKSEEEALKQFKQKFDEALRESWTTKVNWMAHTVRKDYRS
Chain of PI3Kβ (P27986 whole entry partner, the tested form may be a part, canonical isoform): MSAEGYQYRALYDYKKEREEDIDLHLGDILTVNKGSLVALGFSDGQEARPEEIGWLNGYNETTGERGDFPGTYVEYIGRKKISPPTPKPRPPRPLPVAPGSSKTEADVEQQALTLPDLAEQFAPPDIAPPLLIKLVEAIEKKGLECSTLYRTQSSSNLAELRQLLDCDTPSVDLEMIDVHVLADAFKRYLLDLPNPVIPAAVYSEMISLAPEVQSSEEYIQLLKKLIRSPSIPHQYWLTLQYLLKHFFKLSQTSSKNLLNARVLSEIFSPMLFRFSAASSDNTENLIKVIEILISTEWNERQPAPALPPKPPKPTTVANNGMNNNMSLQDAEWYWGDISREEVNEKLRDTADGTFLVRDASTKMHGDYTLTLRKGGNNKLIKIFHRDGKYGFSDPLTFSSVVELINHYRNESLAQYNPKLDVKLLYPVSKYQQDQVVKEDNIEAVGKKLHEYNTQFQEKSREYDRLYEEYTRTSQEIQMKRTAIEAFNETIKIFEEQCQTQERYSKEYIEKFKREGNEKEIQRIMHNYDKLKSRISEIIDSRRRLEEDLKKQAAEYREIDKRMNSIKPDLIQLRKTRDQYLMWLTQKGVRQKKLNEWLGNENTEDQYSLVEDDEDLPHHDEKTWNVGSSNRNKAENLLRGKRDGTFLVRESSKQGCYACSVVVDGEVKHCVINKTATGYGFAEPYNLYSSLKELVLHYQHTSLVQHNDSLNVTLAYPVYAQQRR

Going from Fc1ccc(F)c2c(-n3c(C4CC4)nc4c(-c5cnc(Cl)[nH]5)cc(N5CCOCC5)cc43)ccnc12 (atropisomer, axis not shown) [Compound 342, 4-[7-(2-chloro-1H-imidazol-5-yl)-2-cyclopropyl-3-(5,8-difluoroquinolin-4-yl)benzimidazol-5-yl]morpholine] to CCc1nc2c(-c3cnc(Cl)[nH]3)cc(N3CCOCC3)cc2n1-c1ccnc2c(F)ccc(F)c12 (atropisomer, axis not shown) [Compound 346, 4-[7-(2-chloro-1H-imidazol-5-yl)-3-(5,8-difluoroquinolin-4-yl)-2-ethylbenzimidazol-5-yl]morpholine], the IC50 falls from over 10000 nM to 10000 nM.

Fc1ccc(F)c2c(-n3c(C4CC4)nc4c(-c5cnc(Cl)[nH]5)cc(N5CCOCC5)cc43)ccnc12 (atropisomer, axis not shown) [Compound 343, 4-[7-(2-chloro-1H-imidazol-5-yl)-2-cyclopropyl-3-(5,8-difluoroquinolin-4-yl)benzimidazol-5-yl]morpholine] and CCc1nc2c(-c3cnc(Cl)[nH]3)cc(N3CCOCC3)cc2n1-c1ccnc2c(F)ccc(F)c12 (atropisomer, axis not shown) [Compound 347, 4-[7-(2-chloro-1H-imidazol-5-yl)-3-(5,8-difluoroquinolin-4-yl)-2-ethylbenzimidazol-5-yl]morpholine] are within 1.5-fold of each other in IC50: 5 nM for the first, 7 nM for the second.

Cc1nc2c(-c3nnc[nH]3)cc(N3CCOCC3)cc2n1-c1ccnc2c(F)ccc(Cl)c12 (atropisomer, axis not shown) [Compound 344, 4-[3-(5-chloro-8-fluoroquinolin-4-yl)-2-methyl-7-(4H-1,2,4-triazol-3-yl)benzimidazol-5-yl]morpholine] and Cc1nc2c(-c3nnc[nH]3)cc(N3CCOCC3)cc2n1-c1ccnc2c(F)c(F)ccc12 (atropisomer, axis not shown) [Compound 352, 4-[3-(7,8-difluoroquinolin-4-yl)-2-methyl-7-(4H-1,2,4-triazol-3-yl)benzimidazol-5-yl]morpholine] are within 1.5-fold of each other in IC50: 5 nM for the first, 7 nM for the second.

Going from Cc1nc2c(-c3nnc[nH]3)cc(N3CCOCC3)cc2n1-c1ccnc2c(F)ccc(Cl)c12 (atropisomer, axis not shown) [Compound 345, 4-[3-(5-chloro-8-fluoroquinolin-4-yl)-2-methyl-7-(4H-1,2,4-triazol-3-yl)benzimidazol-5-yl]morpholine] to Cc1nc2c(-c3nnc[nH]3)cc(N3CCOCC3)cc2n1-c1ccnc2c(F)c(F)ccc12 (atropisomer, axis not shown) [Compound 353, 4-[3-(7,8-difluoroquinolin-4-yl)-2-methyl-7-(4H-1,2,4-triazol-3-yl)benzimidazol-5-yl]morpholine], the IC50 falls from 4460 nM to 270 nM (17-fold). The second is the more potent here.

CCc1nc2c(-c3nnc(C)[nH]3)cc(N3CCOCC3)cc2n1-c1c(Cl)cnc2c(Cl)cccc12 (atropisomer, axis not shown) [Compound 348, 4-[3-(3,8-dichloroquinolin-4-yl)-2-ethyl-7-(5-methyl-4H-1,2,4-triazol-3-yl)benzimidazol-5-yl]morpholine] and Cc1nnc(-c2cc(N3CCOCC3)cc3c2nc(C)n3-c2c(Cl)cnc3c(Cl)cccc23)[nH]1 (atropisomer, axis not shown) [Compound 366, 4-(1-(3,8-dichloroquinolin-4-yl)-2-methyl-4-(5-methyl-4H-1,2,4-triazol-3-yl)-1H-benzo[d]imidazol-6-yl)morpholine] are within 1.5-fold of each other in IC50: 13 nM for the first, 17 nM for the second.

First: CCc1nc2c(-c3nnc(C)[nH]3)cc(N3CCOCC3)cc2n1-c1c(Cl)cnc2c(Cl)cccc12 (atropisomer, axis not shown) [Compound 349, 4-[3-(3,8-dichloroquinolin-4-yl)-2-ethyl-7-(5-methyl-4H-1,2,4-triazol-3-yl)benzimidazol-5-yl]morpholine]
Second: Cc1nnc(-c2cc(N3CCOCC3)cc3c2nc(C)n3-c2c(Cl)cnc3c(Cl)cccc23)[nH]1 (atropisomer, axis not shown) [Compound 367, 4-(1-(3,8-dichloroquinolin-4-yl)-2-methyl-4-(5-methyl-4H-1,2,4-triazol-3-yl)-1H-benzo[d]imidazol-6-yl)morpholine]
The IC50 of the first is 13-fold lower: 439 nM for the first, 5600 nM for the second.

Cc1nnc(-c2cc(N3CCOCC3)cc3c2nc(C)n3-c2ccnc3c(F)ccc(F)c23)[nH]1 (atropisomer, axis not shown) [Compound 350, (S)-4-(1-(5,8-difluoroquinolin-4-yl)-2-methyl-4-(5-methyl-4H-1,2,4-triazol-3-yl)-1H-benzo[d]imidazol-6-yl)morpholine] and Cc1nc2c(-c3nnc(Cl)[nH]3)cc(N3CCOCC3)cc2n1-c1ccnc2c(Cl)cccc12 (atropisomer, axis not shown) [Compound 358, 4-[3-(8-chloroquinolin-4-yl)-7-(5-chloro-4H-1,2,4-triazol-3-yl)-2-methylbenzimidazol-5-yl]morpholine] are the same in IC50: 10 nM for the first, 10 nM for the second.

First: Cc1nnc(-c2cc(N3CCOCC3)cc3c2nc(C)n3-c2ccnc3c(F)ccc(F)c23)[nH]1 (atropisomer, axis not shown) [Compound 351, (R)-4-(1-(5,8-difluoroquinolin-4-yl)-2-methyl-4-(5-methyl-4H-1,2,4-triazol-3-yl)-1H-benzo[d]imidazol-6-yl)morpholine]
Second: Cc1nc2c(-c3nnc(Cl)[nH]3)cc(N3CCOCC3)cc2n1-c1ccnc2c(Cl)cccc12 (atropisomer, axis not shown) [Compound 359, 4-[3-(8-chloroquinolin-4-yl)-7-(5-chloro-4H-1,2,4-triazol-3-yl)-2-methylbenzimidazol-5-yl]morpholine]
The IC50 of the first is 2.6-fold lower: 460 nM for the first, 1200 nM for the second. The first is the more potent here.

First: CCCc1nc2c(-c3nnc[nH]3)cc(N3CCOCC3)cc2n1-c1ccnc2c(F)cccc12 (atropisomer, axis not shown) [Compound 354, 4-[3-(8-fluoroquinolin-4-yl)-2-propyl-7-(4H-1,2,4-triazol-3-yl)benzimidazol-5-yl]morpholine]
Second: Cc1nc2c(-c3nnc[nH]3)cc(N3CCOCC3)cc2n1-c1ccnc2c(Cl)cccc12 (atropisomer, axis not shown) [Compound 360, 4-[3-(8-chloroquinolin-4-yl)-2-methyl-7-(4H-1,2,4-triazol-3-yl)benzimidazol-5-yl]morpholine]
The IC50 of the first is 350-fold lower: 8 nM for the first, 2800 nM for the second. The first is the more potent here.

Going from CCCc1nc2c(-c3nnc[nH]3)cc(N3CCOCC3)cc2n1-c1ccnc2c(F)cccc12 (atropisomer, axis not shown) [Compound 355, 4-[3-(8-fluoroquinolin-4-yl)-2-propyl-7-(4H-1,2,4-triazol-3-yl)benzimidazol-5-yl]morpholine] to Cc1nc2c(-c3nnc[nH]3)cc(N3CCOCC3)cc2n1-c1ccnc2c(Cl)cccc12 (atropisomer, axis not shown) [Compound 361, 4-[3-(8-chloroquinolin-4-yl)-2-methyl-7-(4H-1,2,4-triazol-3-yl)benzimidazol-5-yl]morpholine], the IC50 falls from 2500 nM to 2 nM (1200-fold).

Compared with CCCc1nc2c(-c3ncco3)cc(N3CCOCC3)cc2n1-c1ccnc2c(F)ccc(F)c12 (atropisomer, axis not shown) [Compound 356, 4-[3-(5,8-difluoroquinolin-4-yl)-7-(1,3-oxazol-2-yl)-2-propylbenzimidazol-5-yl]morpholine], CCCc1nc2c(-c3ccn[nH]3)cc(N3CCOCC3)cc2n1-c1ccnc2c(F)ccc(F)c12 (atropisomer, axis not shown) [Compound 368, 4-(1-(5,8-difluoroquinolin-4-yl)-2-propyl-4-(1H-pyrazol-5-yl)-1H-benzo[d]imidazol-6-yl)morpholine] is lower in IC50: over 10000 nM for the first, 18 nM for the second. The second is the more potent here.

Going from CCCc1nc2c(-c3ncco3)cc(N3CCOCC3)cc2n1-c1ccnc2c(F)ccc(F)c12 (atropisomer, axis not shown) [Compound 357, 4-[3-(5,8-difluoroquinolin-4-yl)-7(1,3-oxazol-2-yl)-2-propylbenzimidazol-5-yl]morpholine] to CCCc1nc2c(-c3ccn[nH]3)cc(N3CCOCC3)cc2n1-c1ccnc2c(F)ccc(F)c12 (atropisomer, axis not shown) [Compound 369, 4-(1-(5,8-difluoroquinolin-4-yl)-2-propyl-4-(1H-pyrazol-5-yl)-1H-benzo[d]imidazol-6-yl)morpholine], the IC50 rises from 5 nM to over 10000 nM. The first is the more potent here.

Cc1cccc2nccc(-n3c(C)nc4c(-c5nnc[nH]5)cc(N5CCOCC5)cc43)c12 (atropisomer, axis not shown) [Compound 362, 4-[2-methyl-3-(5-methylquinolin-4-yl)-7-(4H-1,2,4-triazol-3-yl)benzimidazol-5-yl]morpholine] and CCc1nc2c(-c3nnc[nH]3)cc(N3CCOCC3)cc2n1-c1c(C)cnc2c(C#N)cccc12 (atropisomer, axis not shown) [Compound 364, 4-(2-ethyl-6-morpholino-4-(4H-1,2,4-triazol-3-yl)-1H-benzo[d]imidazol-1-yl)-3-methylquinoline-8-carbonitrile] are within 1.5-fold of each other in IC50: 28 nM for the first, 25 nM for the second.

Cc1cccc2nccc(-n3c(C)nc4c(-c5nnc[nH]5)cc(N5CCOCC5)cc43)c12 (atropisomer, axis not shown) [Compound 363, 4-[2-methyl-3-(5-methylquinolin-4-yl)-7-(4H-1,2,4-triazol-3-yl)benzimidazol-5-yl]morpholine] and CCc1nc2c(-c3nnc[nH]3)cc(N3CCOCC3)cc2n1-c1c(C)cnc2c(C#N)cccc12 (atropisomer, axis not shown) [Compound 365, 4-(2-ethyl-6-morpholino-4-(4H-1,2,4-triazol-3-yl)-1H-benzo[d]imidazol-1-yl)-3-methylquinoline-8-carbonitrile] are within 1.5-fold of each other in IC50: 8000 nM for the first, 9100 nM for the second.
